Assay results as given in ChEMBL document CHEMBL5537115, “New broad-spectrum and potent antibacterial agents with dual-targeting mechanism: Promoting FtsZ polymerization and disrupting bacterial membranes” (Eur J Med Chem, 2024).
In brackets after ≈: the same amount, converted by molar mass.

What was measured:
Type in all cases: functional
Streptococcus pyogenes [1] = test: Antibacterial activity against erythromycin-resistant Streptococcus pyogenes 2 clinical isolate assessed as bacterial growth inhibition incubated for 20 hrs by CLSI based broth microdilution method
[2] = system: Staphylococcus epidermidis; test: Antibacterial activity against penicillin-resistant Staphylococcus epidermidis clinical isolate assessed as bacterial growth inhibition incubated for 20 hrs by CLSI based broth microdilution method
Staphylococcus aureus [3] = test: Antibacterial activity against Staphylococcus aureus clinical isolate assessed as bacterial growth inhibition incubated for 20 hrs by CLSI based broth microdilution method
Staphylococcus aureus [4] = test: Antibacterial activity against penicillin-resistant Staphylococcus aureus ATCC31007 assessed as bacterial growth inhibition incubated for 20 hrs by CLSI based broth microdilution method
Staphylococcus aureus [5] = test: Antibacterial activity against methicillin-resistant Staphylococcus aureus ATCC43300 assessed as bacterial growth inhibition incubated for 20 hrs by CLSI based broth microdilution method
Klebsiella pneumoniae = test: Antibacterial activity against Klebsiella pneumoniae ATCC BAA-1902 assessed as bacterial growth inhibition incubated for 20 hrs by CLSI based broth microdilution method
Acinetobacter baumannii = test: Antibacterial activity against Acinetobacter baumannii ATCC19606 assessed as bacterial growth inhibition incubated for 20 hrs by CLSI based broth microdilution method
Escherichia coli [6] = test: Antibacterial activity against wild-type Escherichia coli BW25113 assessed as bacterial growth inhibition incubated for 20 hrs by CLSI based broth microdilution method
Escherichia coli [7] = test: Antibacterial activity against penicillin-susceptible Escherichia coli ATCC25922 assessed as bacterial growth inhibition incubated for 20 hrs by CLSI based broth microdilution method
Enterococcus faecium [8] = test: Antibacterial activity against vancomycin-susceptible Enterococcus faecium ATCC19434 assessed as bacterial growth inhibition incubated for 20 hrs by CLSI based broth microdilution method
Enterococcus faecalis [9] = test: Antibacterial activity against vancomycin-susceptible Enterococcus faecalis ATCC29212 assessed as bacterial growth inhibition incubated for 20 hrs by CLSI based broth microdilution method
Streptococcus pyogenes [10] = test: Antibacterial activity against erythromycin-susceptible Streptococcus pyogenes 1 assessed as bacterial growth inhibition incubated for 20 hrs by CLSI based broth microdilution method
Staphylococcus aureus [11] = test: Antibacterial activity against erythromycin-susceptible Staphylococcus aureus ATCC25923 assessed as bacterial growth inhibition incubated for 20 hrs by CLSI based broth microdilution method
Bacillus pumilus = test: Antibacterial activity against penicillin-susceptible Bacillus pumilus CMCC63202 assessed as bacterial growth inhibition incubated for 20 hrs by CLSI based broth microdilution method
Bacillus subtilis = test: Antibacterial activity against penicillin-susceptible Bacillus subtilis ATCC9372 assessed as bacterial growth inhibition incubated for 20 hrs by CLSI based broth microdilution method
Enterococcus faecalis [12] = test: Antibacterial activity against vancomycin-resistant Enterococcus faecalis ATCC51299 assessed as bacterial growth inhibition incubated for 20 hrs by CLSI based broth microdilution method
Enterococcus faecium [13] = test: Antibacterial activity against vancomycin-resistant Enterococcus faecium ATCC51559 assessed as bacterial growth inhibition incubated for 20 hrs by CLSI based broth microdilution method

Row | Structure (SMILES) | MIC (Streptococcus pyogenes [1]) [µg/mL] | MIC [2] [µg/mL] | MIC (Staphylococcus aureus [3]) [µg/mL] | MIC (Staphylococcus aureus [4]) [µg/mL] | MIC (Staphylococcus aureus [5]) [µg/mL] | MIC (Klebsiella pneumoniae) [µg/mL] | MIC (Acinetobacter baumannii) [µg/mL] | MIC (Escherichia coli [6]) [µg/mL] | MIC (Escherichia coli [7]) [µg/mL] | MIC (Enterococcus faecium [8]) [µg/mL] | MIC (Enterococcus faecalis [9]) [µg/mL] | MIC (Streptococcus pyogenes [10]) [µg/mL] | MIC (Staphylococcus aureus [11]) [µg/mL] | MIC (Bacillus pumilus) [µg/mL] | MIC (Bacillus subtilis) [µg/mL] | MIC (Enterococcus faecalis [12]) [µg/mL] | MIC (Enterococcus faecium [13]) [µg/mL]
1 | C[n+]1cc(-c2ccccc2)c(/C=C/c2ccc(O)cc2)cc1-c1ccccc1.[I-] | 16 | 16 | 16 | 64 | 32 | 64 | 32 | > 64 | > 64 | 64 | 64 | 4 | 2 | 32 | 8 | 64 | 64
2 | C[n+]1cc(-c2ccccc2)cc(/C=C/c2cccc(Br)c2)c1-c1ccccc1.[I-] | 8 | 8 | 2 | 16 | 4 | 64 | 16 | > 64 | 64 | 16 | 16 | 4 | 4 | 16 | 4 | 16 | 16
3 | C[n+]1cc(-c2ccccc2)c(/C=C/c2ccc(C(C)(C)C)cc2)cc1-c1ccc2ccccc2c1.[I-] | 4 | 2 | 0.5 | 2 | 1 | 8 | 1 | 4 | 64 | 2 | 1 | 1 | 1 | 0.5 | 0.5 | 2 | 2
4 | CC(C)c1ccc(/C=C/c2cc(-c3ccccc3)c[n+](C)c2-c2ccccc2)cc1.[I-] | 2 | 4 | 0.5 | 4 | 2 | 32 | 8 | 32 | 16 | 4 | 4 | 2 | 0.5 | 2 | 1 | 4 | 4
5 | CCc1ccc(/C=C/c2cc(-c3ccc(C(C)(C)C)cc3)[n+](C)cc2-c2ccccc2C)cc1.[I-] | 4 | 1 | 0.5 | 1 | 0.5 | 8 | 2 | > 64 | 4 | 1 | 2 | 4 | 0.125 | 1 | 0.5 | 1 | 0.5
6 | CC(C)c1ccc(/C=C/c2cc(-c3ccc4ccccc4c3)[n+](C)cc2-c2ccccc2)cc1.[I-] | 4 | 2 | 0.5 | 2 | 0.5 | 16 | 2 | 8 | 64 | 2 | 2 | 0.5 | 0.5 | 0.5 | 0.5 | 4 | 2
7 | CCCOc1ccc(/C=C/c2cc(-c3ccccc3)c[n+](C)c2-c2ccccc2)cc1.[I-] | 4 | 4 | 0.5 | 4 | 2 | 8 | 8 | 64 | 32 | 8 | 8 | 2 | 0.5 | 4 | 2 | 8 | 8
8 | CC(C)c1ccc(/C=C/c2cc(-c3ccc(C(C)(C)C)cc3)[n+](C)cc2-c2ccccc2)cc1.[I-] | 2 | 1 | 0.5 | 1 | 0.25 | 8 | 1 | 4 | 2 | 1 | 1 | 4 | 0.125 | 0.25 | 0.125 | 0.5 | 1
9 | CCCCCCOc1ccc(/C=C/c2cc(-c3ccccc3)c[n+](C)c2-c2ccccc2)cc1.[I-] | 2 | 2 | 1 | 2 | 1 | > 64 | 2 | 4 | 8 | 2 | 2 | 2 | 0.25 | 0.5 | 2 | 1 | 2
10 | NC(=O)c1c(F)ccc(OCc2nc3cc(Cl)cnc3s2)c1F | > 64 | > 64 | 1 (≈ 2.81 µM) | 2 (≈ 5.62 µM) | 1 (≈ 2.81 µM) | > 64 | > 64 | > 64 | > 64 | > 64 | > 64 | > 64 | 1 (≈ 2.81 µM) | 0.5 (≈ 1.41 µM) | 0.5 (≈ 1.41 µM) | > 64 | > 64
11 | C[n+]1cc(-c2ccccc2)cc(/C=C/c2ccc(Cl)cc2)c1-c1ccccc1.[I-] | 4 | 8 | 2 | 16 | 4 | > 64 | 8 | > 64 | 64 | 16 | 16 | 4 | 2 | 8 | 4 | 16 | 16
12 | CN(C)c1ccc(/C=C/c2cc(-c3ccccc3)[n+](C)cc2-c2ccccc2)cc1.[I-] | 8 | 8 | 1 | 8 | 2 | > 64 | 8 | 64 | 32 | 16 | 16 | 8 | 0.5 | 8 | 1 | 16 | 16
13 | C[n+]1cc(-c2ccccc2)cc(/C=C/c2ccc(F)cc2)c1-c1ccccc1.[I-] | 8 | 64 | 8 | 64 | 8 | > 64 | 32 | > 64 | > 64 | 64 | 64 | 8 | 2 | 32 | 8 | > 64 | 64
14 | CCCCCCCOc1ccc(/C=C/c2cc(-c3ccccc3)c[n+](C)c2-c2ccccc2)cc1.[I-] | 8 | 64 | 8 | 64 | 8 | 8 | 2 | 8 | 8 | 2 | 4 | 4 | 0.25 | 1 | 1 | > 64 | 64
15 | C[n+]1cc(-c2ccccc2)cc(/C=C/c2ccccc2[N+](=O)[O-])c1-c1ccccc1.I | 16 | 64 | 32 | > 64 | 32 | > 64 | 64 | > 64 | > 64 | > 64 | > 64 | 16 | 8 | 64 | 16 | > 64 | > 64
16 | CC(=O)Nc1ccc(/C=C/c2cc(-c3ccc4ccccc4c3)[n+](C)cc2-c2ccccc2)cc1.[I-] | – | – | 1 | – | – | > 64 | 32 | > 64 | > 64 | 32 | 16 | – | 0.5 | 16 | 1 | – | –
17 | CN[C@H](CC(C)C)C(=O)N[C@H]1C(=O)N[C@@H](CC(N)=O)C(=O)N[C@H]2C(=O)N[C@H]3C(=O)N[C@H](C(=O)N[C@H](C(=O)O)c4cc(O)cc(O)c4-c4cc3ccc4O)[C@H](O)c3ccc(c(Cl)c3)Oc3cc2cc(c3O[C@@H]2O[C@H](CO)[C@@H](O)[C@H](O)[C@H]2O[C@H]2C[C@](C)(N)[C@H](O)[C@H](C)O2)Oc2ccc(cc2Cl)[C@H]1O [VANCOMYCIN] | 1 (≈ 0.69 µM) | – | – | – | – | > 64 | 64 (≈ 44.2 µM) | > 64 | > 64 | – | – | 0.25 (≈ 0.173 µM) | – | 2 (≈ 1.38 µM) | 0.5 (≈ 0.345 µM) | > 64 | > 64
